Assays:
[1] = Cytotoxicity by MTT assay; type: cell-based, Human; settings: human
Protocol: (§1) Drug susceptibility assay. The susceptibility of HIV-1LAI, HIV-2EHO, HIV-2ROD, to various drugs and the cytotoxicity of those drugs was determined by using the MTT assay. Briefly, MT-2 cells (2×10^4/mL) were exposed to 100 TCID50s (50% tissue culture infectious doses) of HIV-1LAI, HIV-2EHO, or HIV-2ROD in the presence or absence of various concentrations of drugs in 96-well microculture plates and were incubated at 37° C. for 7 days. After 100 μL of the medium was removed from each well, 3-(4,5-dimethylthiazol-2-yl)-2,5-diphenyltetrazolium bromide (MTT) solution (10 μL, 7.5 mg/mL in phosphate-buffered saline) was added to each well in the plate, followed by incubation at 37° C. for 4 hours. […] All assays were performed in duplicate or triplicate. To determine the sensitivity of HIV-1Ba-L, HIV-1ERS104 pre, and clinical multi-drug-resistant HIV-1 isolates and different subtypes of HIV-1 isolates to drugs, phytohemagglutinin-activated peripheral blood mononuclear cells (PHA-PBMs; 10^6/mL) were exposed to 50 TCID50 (50% tissue infectious dose) of each HIV-1 isolate and cultured in the presence or absence of various concentrations of drugs in 10-fold serial dilutions in 96-well microtiter culture plates. To determine the drug susceptibility of certain laboratory HIV-1 strains (HIV-1NL4-3), MT-4 cells were used as target cells. MT-4 cells (10^5/mL) were exposed to 100 TCID50 of wild type HIV-1NL4-3 and PI-resistant HIV-1NL4-3 in the presence or absence of various concentrations of drugs and were incubated at 37° C. On day 7 of culture, the supernatant was harvested and the amount of p24 Gag protein was determined by using a fully automated chemiluminescent enzyme immunoassay system (Lumipulse F; Fujirebio Inc., Tokyo, Japan) (22). […] All assays were performed in duplicate or triplicate.

HIV-1MDR/G (X4) = experiment: microbe, parasite or virus in culture; type: cell-based; settings: for IC50: Human immunodeficiency virus 1, read-out: IC50 against HIV-1MDR/G (X4); for fold change of IC50, HIV-1MDR/G: compared to wild-type HIV-1ERS104pre
Protocol: as §1
(§2) HIV-1ERS104pre served as a source of wild-type HIV-1. The IC50 values were determined by using PHA-PBMs as target cells and the inhibition of p24 Gag protein production by each drug was used as an endpoint.

HIV-1MDR/C (X4) = experiment: microbe, parasite or virus in culture; type: cell-based; settings: for IC50: Human immunodeficiency virus 1, read-out: IC50 against HIV-1MDR/C (X4); for fold change of IC50, HIV-1MDR/C: compared to wild-type HIV-1ERS104pre
Protocol: as §1, §2

HIV-1MDR/JSL (R5) = experiment: microbe, parasite or virus in culture; type: cell-based; settings: for IC50: Human immunodeficiency virus 1, read-out: IC50 against HIV-1MDR/JSL (R5); for fold change of IC50, HIV-1MDR/JSL: compared to wild-type HIV-1ERS104pre
Protocol: as §1, §2

HIV-1MDR/TM (X4) = experiment: microbe, parasite or virus in culture; type: cell-based; settings: for IC50: Human immunodeficiency virus 1, read-out: IC50 against HIV-1MDR/TM (X4); for fold change of IC50, HIV-1MDR/TM: compared to wild-type HIV-1ERS104pre
Protocol: as §1, §2

HIV-1MDR/B (X4) = experiment: microbe, parasite or virus in culture; type: cell-based; settings: for IC50: Human immunodeficiency virus 1, read-out: IC50 against HIV-1MDR/B (X4); for fold change of IC50, HIV-1MDR/B: compared to wild-type HIV-1ERS104pre
Protocol: as §1, §2

HIV-1MDR/MM (R5) = experiment: microbe, parasite or virus in culture; type: cell-based; settings: for IC50: Human immunodeficiency virus 1, read-out: IC50 against HIV-1MDR/MM (R5); for fold change of IC50, HIV-1MDR/MM: compared to wild-type HIV-1ERS104pre
Protocol: as §1, §2

HIV-1APV5μM = experiment: microbe, parasite or virus in culture; type: cell-based; settings: for IC50: Human immunodeficiency virus 1, MT4, read-out: IC50 against HIV-1APV5μM; for fold change of IC50, HIV-1APV5μM: compared to wild-type HIV-1NL4-3
Protocol: as §1
(§3) Generation of PI-resistant HIV-1 in vitro. MT-4 cells (10^5/mL) were exposed to HIV-1NL4-3 (500 TCID50) and cultured in the presence of various PIs at an initial concentration of its IC50 values. Viral replication was monitored by determination of the amount of p24 Gag produced by MT-4 cells. The culture supernatants were harvested on day 7 and used to infect fresh MT-4 cells for the next round of culture in the presence of increasing concentrations of each drug. […] Proviral DNA samples obtained from the lysates of infected cells were subjected to nucleotide sequencing. This drug selection procedure was carried out until the drug concentration reached 1 or 5 μM.

HIV-1IDV5μM = experiment: microbe, parasite or virus in culture; type: cell-based; settings: for IC50: Human immunodeficiency virus 1, MT4, read-out: IC50 against HIV-1IDV5μM; for fold change of IC50, HIV-1IDV5μM: compared to wild-type HIV-1NL4-3
Protocol: as §1, §3

HIV-1ATV1μM = experiment: microbe, parasite or virus in culture; type: cell-based; settings: for IC50: Human immunodeficiency virus 1, MT4, read-out: IC50 against HIV-1ATV1μM; for fold change of IC50, HIV-1ATV1μM: compared to wild-type HIV-1NL4-3
Protocol: as §1, §3

HIV-1NFV5μM = experiment: microbe, parasite or virus in culture; type: cell-based; settings: for IC50: Human immunodeficiency virus 1, MT4, read-out: IC50 against HIV-1NFV5μM; for fold change of IC50, HIV-1NFV5μM: compared to wild-type HIV-1NL4-3
Protocol: as §1, §3

HIV-1RTV5μM = experiment: microbe, parasite or virus in culture; type: cell-based; settings: for IC50: Human immunodeficiency virus 1, MT4, read-out: IC50 against HIV-1RTV5μM; for fold change of IC50, HIV-1RTV5μM: compared to wild-type HIV-1NL4-3
Protocol: as §1, §3

HIV-1LPV1μM = experiment: microbe, parasite or virus in culture; type: cell-based; settings: for IC50: Human immunodeficiency virus 1, MT4, read-out: IC50 against HIV-1LPV1μM; for fold change of IC50, HIV-1LPV1μM: compared to wild-type HIV-1NL4-3
Protocol: as §1, §3

HIV-1SQV5μM = experiment: microbe, parasite or virus in culture; type: cell-based; settings: for IC50: Human immunodeficiency virus 1, MT4, read-out: IC50 against HIV-1SQV5μM; for fold change of IC50, HIV-1SQV5μM: compared to wild-type HIV-1NL4-3
Protocol: as §1, §3

[2] = tested on: HIV-1, HIV-2, and primary HIV-1 strains of different subtypes; experiment: Antiviral activity over Tables 1, 2 and 5 (summary); type: cell-based
Protocol: (§4) Drug susceptibility assay. The susceptibility of HIV-1LAI, HIV-2EHO, HIV-2ROD, to various drugs and the cytotoxicity of those drugs was determined by using the MTT assay. Briefly, MT-2 cells (2×10^4/mL) were exposed to 100 TCID50s (50% tissue culture infectious doses) of HIV-1LAI, HIV-2EHO, or HIV-2ROD in the presence or absence of various concentrations of drugs in 96-well microculture plates and were incubated at 37° C. for 7 days. After 100 μL of the medium was removed from each well, 3-(4,5-dimethylthiazol-2-yl)-2,5-diphenyltetrazolium bromide (MTT) solution (10 μL, 7.5 mg/mL in phosphate-buffered saline) was added to each well in the plate, followed by incubation at 37° C. for 4 hours. […] All assays were performed in duplicate or triplicate. […] On day 7 of culture, the supernatant was harvested and the amount of p24 Gag protein was determined by using a fully automated chemiluminescent enzyme immunoassay system (Lumipulse F; Fujirebio Inc., Tokyo, Japan) (22). […]

[3] = tested on: HIV-1 isolates of all subtypes (subtypes A, B, C, and E); experiment: p24 assay, PHA-PBMs, panel of HIV-1 isolates of subtypes A, B, C, and E; type: cell-based; settings: Human immunodeficiency virus 1, read-out: IC50 against HIV-1 isolates of subtypes A, B, C, and E
Protocol: as §4
The IC50 values were determined by using PHA-PBMs as target cells and the inhibition of p24 Gag protein production by each drug was used as an endpoint. […]

Row | SMILES | IC50 (HIV-1MDR/G (X4)) [nM] | fold change of IC50, HIV-1MDR/G (HIV-1MDR/G (X4)) | IC50 (HIV-1MDR/C (X4)) [nM] | fold change of IC50, HIV-1MDR/C (HIV-1MDR/C (X4)) | IC50 (HIV-1MDR/JSL (R5)) [nM] | fold change of IC50, HIV-1MDR/JSL (HIV-1MDR/JSL (R5)) | IC50 (HIV-1MDR/TM (X4)) [nM] | fold change of IC50, HIV-1MDR/TM (HIV-1MDR/TM (X4)) | IC50 (HIV-1MDR/B (X4)) [nM] | fold change of IC50, HIV-1MDR/B (HIV-1MDR/B (X4)) | IC50 (HIV-1MDR/MM (R5)) [nM] | fold change of IC50, HIV-1MDR/MM (HIV-1MDR/MM (R5)) | IC50 (HIV-1APV5μM) [nM] | fold change of IC50, HIV-1APV5μM (HIV-1APV5μM) | IC50 (HIV-1IDV5μM) [nM] | IC50 (HIV-1ATV1μM) [nM] | IC50 (HIV-1NFV5μM) [nM] | IC50 (HIV-1RTV5μM) [nM] | IC50 (HIV-1LPV1μM) [nM] | IC50 (HIV-1SQV5μM) [nM] | also measured
1 | CC(C)CN(CC(O)C(Cc1ccccc1)NC(=O)OC1COC2OCCC12)S(=O)(=O)c1ccc2c(c1)OCO2 (centres unmarked) [GRL-98065] | 3.4 ± 0.3 | 7 | 2.7 ± 0.3 | 5 | 6 | 12 | 3.2 ± 0.6 | 6 | 3.9 ± 0.5 | 8 | 3.8 ± 0.6 | 8 | 32 | 107 | 3.7 ± 0.7 | 1.5 ± 0.9 | 2.4 ± 0.8 | 2.5 ± 0.3 | 7.5 ± 0.3 | 6 ± 3 | CC50 at 7 days [1]: 35.7 µM; fold change of IC50, HIV-1IDV5μM (HIV-1IDV5μM): 12; fold change of IC50, HIV-1ATV1μM (HIV-1ATV1μM): 5; fold change of IC50, HIV-1NFV5μM (HIV-1NFV5μM): 8; fold change of IC50, HIV-1RTV5μM (HIV-1RTV5μM): 8; fold change of IC50, HIV-1LPV1μM (HIV-1LPV1μM): 25; fold change of IC50, HIV-1SQV5μM (HIV-1SQV5μM): 20; IC50 [2]: 0.2 to 4.5 nM; IC50 [3]: 0.2 to 0.5 nM
2 | CC(C)(C)NC(=O)[C@@H]1CN(Cc2cccnc2)CCN1C[C@@H](O)C[C@@H](Cc1ccccc1)C(=O)N[C@H]1c2ccccc2C[C@H]1O [IDV, indinavir] | 640 ± 110 | – | > 1000 | – | > 1000 | – | > 1000 | – | > 1000 | – | > 1000 | – | 200 ± 7 | – | > 1000 | 388 ± 1 | 270 ± 50 | 250 ± 10 | > 1000 | > 1000 | –
3 | CC(C)(C)NC(=O)[C@@H]1C[C@@H]2CCCC[C@@H]2CN1C[C@@H](O)[C@H](Cc1ccccc1)NC(=O)[C@H](CC(N)=O)NC(=O)c1ccc2ccccc2n1 [SQV, Saquinavir] | 33 ± 5 | 4 | 35 ± 4 | 4 | 290 ± 50 | 36 | 180 ± 50 | 23 | 270 ± 60 | 34 | 140 ± 40 | 18 | 31 ± 4 | 4 | 59 ± 4 | 37 ± 4 | 24 ± 8 | 10 ± 8 | 32 ± 2 | > 1000 | fold change of IC50, HIV-1IDV5μM (HIV-1IDV5μM): 8; fold change of IC50, HIV-1ATV1μM (HIV-1ATV1μM): 5; fold change of IC50, HIV-1NFV5μM (HIV-1NFV5μM): 3; fold change of IC50, HIV-1RTV5μM (HIV-1RTV5μM): 1; fold change of IC50, HIV-1LPV1μM (HIV-1LPV1μM): 5; fold change of IC50, HIV-1SQV5μM (HIV-1SQV5μM): > 143

Source: patent publication US9808527B2, “Methods and compositions for treating HIV infections” (priority 2006, dated 2017)
